# Test results reported in patent publication US9994886B2, “Modified Epstein-Barr virus DNA polymerase and methods for isothermal DNA amplification” (priority 2013, dated 2018).
# B1: ΔC303: BMRF1 with deletion of the C-terminal 101 amino acids (residues 1-303) (protein)
# chain: METTQTLRFKTKALAVLSKCYDHAQTHLKGGVLQVNLLSVNYGGPRLAAVANAGTAGLISFEVSPDAVAEWQNHQSPEEAPAAVSFRNLAYGRTCVLGKELFGSAVEQASLQFYKRPQGGSRPEFVKLTMEYDDKVSKSHHTCALMPYMPPASDRLRNEQMIGQVLLMPKTASSLQKWARQQGSGGVKVTLNPDLYVTTYTSGEACLTLDYKPLSVGPYEAFTGPVAKAQDVGAVEAHVVCSVAADSLAAALSLCRIPAVSVPILRFYRSGIIAVVAGLLTSAGDLPLDLSVILFNHASEEAA
# What was measured:
# [1] = target: T1, EBVpol (Epstein-Barr virus, UniProt P03198); experiment: Inhibition of EBVpol activity at high salt; type: biochemical; details: 20 mM PAA
# T1 construct: Ac-BALF5 baculovirus vector, an expression plasmid vector bearing the full-length BALF5 gene; made in house; host or cells: Sf9 insect cells, recombinant baculoviruses pAc-BALF5 and pAc-BMRF1
# T1 sequence (P03191 whole entry): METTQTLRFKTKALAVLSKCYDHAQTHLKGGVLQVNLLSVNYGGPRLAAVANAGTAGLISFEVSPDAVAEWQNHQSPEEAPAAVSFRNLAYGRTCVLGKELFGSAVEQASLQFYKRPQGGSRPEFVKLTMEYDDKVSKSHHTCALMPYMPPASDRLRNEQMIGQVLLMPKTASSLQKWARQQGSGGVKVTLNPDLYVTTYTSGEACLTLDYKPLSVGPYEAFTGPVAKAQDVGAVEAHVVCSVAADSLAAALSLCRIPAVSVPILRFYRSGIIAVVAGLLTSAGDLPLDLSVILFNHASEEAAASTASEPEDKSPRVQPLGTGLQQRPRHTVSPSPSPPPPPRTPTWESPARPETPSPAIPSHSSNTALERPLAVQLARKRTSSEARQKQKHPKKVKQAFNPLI
# T1 sequence (P03198 whole entry, added parts left off): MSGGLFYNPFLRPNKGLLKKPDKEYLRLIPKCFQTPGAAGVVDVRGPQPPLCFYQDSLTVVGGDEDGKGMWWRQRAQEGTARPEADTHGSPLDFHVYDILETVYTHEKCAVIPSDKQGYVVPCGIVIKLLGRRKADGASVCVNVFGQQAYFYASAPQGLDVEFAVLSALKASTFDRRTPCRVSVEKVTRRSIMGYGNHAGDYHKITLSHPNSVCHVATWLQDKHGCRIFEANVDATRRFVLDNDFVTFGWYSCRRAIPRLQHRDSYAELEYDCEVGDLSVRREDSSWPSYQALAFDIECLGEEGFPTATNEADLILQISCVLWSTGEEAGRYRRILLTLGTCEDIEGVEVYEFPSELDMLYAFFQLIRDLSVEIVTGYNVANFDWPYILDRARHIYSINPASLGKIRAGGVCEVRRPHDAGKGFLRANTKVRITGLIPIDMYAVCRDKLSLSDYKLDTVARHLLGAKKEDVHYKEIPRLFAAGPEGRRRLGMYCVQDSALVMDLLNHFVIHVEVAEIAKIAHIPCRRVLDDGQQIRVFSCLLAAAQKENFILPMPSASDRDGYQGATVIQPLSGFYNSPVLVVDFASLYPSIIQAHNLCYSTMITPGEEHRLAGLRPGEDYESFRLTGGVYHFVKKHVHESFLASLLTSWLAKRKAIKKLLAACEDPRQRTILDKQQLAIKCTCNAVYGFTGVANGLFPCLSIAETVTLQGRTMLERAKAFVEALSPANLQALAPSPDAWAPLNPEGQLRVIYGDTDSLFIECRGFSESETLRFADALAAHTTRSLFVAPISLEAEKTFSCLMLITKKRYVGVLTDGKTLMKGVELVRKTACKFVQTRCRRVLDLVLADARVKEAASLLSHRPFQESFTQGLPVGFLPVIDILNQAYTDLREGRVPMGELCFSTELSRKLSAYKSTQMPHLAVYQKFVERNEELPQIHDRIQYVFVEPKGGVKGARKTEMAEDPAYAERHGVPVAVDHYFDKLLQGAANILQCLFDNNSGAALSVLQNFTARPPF
# Experimental: (§1) When assayed in the presence of BMRF1, its activity on CT DNA at 100 mM ammonium sulfate was greater than 100-fold increased over its activity alone, in the absence of salt.
# [2] = tested on: activated calf thymus (CT) DNA; experiment: DNA polymerase elongation activity of purified BALF5 on activated calf thymus DNA; type: biochemical
# Experimental: as §1
# [3] = tested on: activated calf thymus DNA; experiment: DNA polymerase assay, incorporation of [32P]-dCMP into trichloroacetic acid-precipitable material; type: biochemical; details: 100 mM ammonium sulfate; polypeptides in equimolar ratios
# Experimental: The activity of the bacterially-expressed purified BMRF1(1-303)(“ΔC303”) polypeptide was examined in a DNA polymerase assay which measured incorporation of [^32P]-α-dCMP into trichloroacetic acid-precipitable material using activated calf thymus DNA and [^32P]-α-dCTP as the substrates in the presence of 100 mM ammonium sulfate (Tsurumi, T., T. Daikoku, and Y. Nishiyama, J Virol, 1994, 68(5): p. 3354-63). The BALF5 catalytic DNA polymerase subunit was obtained by expression in insect cells from the Ac-BALF5 baculovirus and purified by phosphocellulose and heparin affinity chromatography. The polypeptides were assayed in equimolar ratios and the specific activity (micromoles of dCMP incorporation per milligram of protein per hour) is shown in Table 3.
# The GST-BMRF1 (1-303) polypeptide was bound to glutathione-agarose as described previously and cleaved overnight with 1/50 (w/w) factor Xa (NEBioLabs, Ipswich, Mass.) in 1 mM CaCl2. The cleaved BMRF1 (1-303) was then purified on DNA-cellulose, eluting at 300-500 mM NaCl. SDS-PAGE analysis confirmed the size of the uncleaved GST-BMRF1 (1-303) and the purified cleaved BMRF1 (1-303). The purified BMRF1 (1-303) was then shown to stimulate purified baculovirus-expressed BALF5 in 100 mM ammonium sulfate (see Table 3).
# [4] = target: T2, GST (Schistosoma japonicum, UniProt P08515); experiment: Non-specific binding of in vitro translated BALF5 to GST
# T2 construct: made in house; host or cells: E. coli (bacterial extract)
# T2 sequence (P08515 whole entry): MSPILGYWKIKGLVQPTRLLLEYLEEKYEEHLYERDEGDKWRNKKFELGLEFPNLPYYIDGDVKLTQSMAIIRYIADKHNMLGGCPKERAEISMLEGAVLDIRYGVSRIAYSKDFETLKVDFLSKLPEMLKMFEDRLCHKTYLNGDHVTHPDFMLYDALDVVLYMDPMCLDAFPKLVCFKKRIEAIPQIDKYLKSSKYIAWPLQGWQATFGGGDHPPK
# Experimental: (§2) To determine if the extreme carboxyl terminus of the EBV BALF5 subunit is necessary for functional interaction with BMRF1, a series of deletions of the BALF5 open reading frame was constructed in the pYES-X2 vector and [^35S]-methionine labeled polypeptides were expressed by in vitro transcription-translation as described (Kiehl, A. and D. I. Dorsky, J Virol, 1995, 69(3): p. 1669-77). These radiolabeled BALF5-deletion polypeptides were then assayed for binding to GST-BMRF1(1-303) in 100 mM ammonium sulfate. In vitro translated BALF5 bound to GST-BMRF1(1-303) but not to GST alone.
# A GST fusion with BMRF1 residues 1-303 was constructed and expressed in E. coli BL21*DE3 as a soluble 58 kDa protein which bound specifically to glutathione-agarose. Glutathione agarose beads were incubated in bacterial extract containing either 27 kDa wild-type GST or 58 kDa GST-BMRF1 and extensively washed in PBS, or 50 mM Tris-HCl, pH 8.0 containing 0, 50, 100, 150, or 200 mM ammonium sulfate. The beads were then incubated in the same wash buffers in the presence of [^35S]-methionine labeled in vitro translated BALF5, and then the beads were washed extensively at the same salt concentrations as the incubations. The washed beads were boiled in SDS sample buffer and the eluted proteins were analyzed by SDS-PAGE/fluorography. […]
# [5] = target: T3, GST-BMRF1 fusion (Epstein-Barr virus, UniProt P03191); experiment: GST-BMRF1 fusion binding to BALF5 on glutathione agarose beads at varied salt
# T3 construct: A GST fusion with BMRF1 residues 1-303 was constructed and expressed in E. coli BL21*DE3; made in house; host or cells: E. coli BL21*DE3
# T3 sequence (P03191 1-303): B1 chain
# Experimental: A GST fusion with BMRF1 residues 1-303 was constructed and expressed in E. coli BL21*DE3 as a soluble 58 kDa protein which bound specifically to glutathione-agarose. Glutathione agarose beads were incubated in bacterial extract containing either 27 kDa wild-type GST or 58 kDa GST-BMRF1 and extensively washed in PBS, or 50 mM Tris-HCl, pH 8.0 containing 0, 50, 100, 150, or 200 mM ammonium sulfate. The beads were then incubated in the same wash buffers in the presence of [^35S]-methionine labeled in vitro translated BALF5, and then the beads were washed extensively at the same salt concentrations as the incubations. The washed beads were boiled in SDS sample buffer and the eluted proteins were analyzed by SDS-PAGE/fluorography. Measures taken to avoid the copurification of nucleic acids included washing the column at 600 mM NaCl and application of DNase to the column. And SDS-PAGE analysis was used to monitor GST-BMRF1 (1-303). […] Non-specific binding of BALF5 to the 27 kDa GST was very weak and independent of salt concentration.
# [6] = target: T4, GST-BMRF1(1-303) (Epstein-Barr virus, UniProt P03191); experiment: Binding of radiolabeled BALF5-deletion polypeptides to GST-BMRF1(1-303); details: 100 mM ammonium sulfate; [35S]-methionine labeled in vitro translated polypeptides
# T4 construct: A GST fusion with BMRF1 residues 1-303 was constructed and expressed in E. coli BL21*DE3; made in house; host or cells: E. coli BL21*DE3
# T4 sequence (P03191 1-303): B1 chain
# Experimental: as §2
# [7] = BALF5 combined with BMRF1; cited from earlier work
# [8] = tested on: oligo dG:poly dC; experiment: Activity on synthetic primer:template, GC preference; type: biochemical
# Text: EBVpol and the modified EBVpol of this invention have strong amplification activity on GC-rich regions of DNA sequences; EBV DNA polymerase has 29-fold greater activity on synthetic oligo dG:poly dC (primer:template) compared to oligo dA:poly dT. GC-rich DNA sequences are the most difficult-to-amplify DNA sequences. […] Thus, the GC-preference of EBVpol and its variants makes EBVpol and its variants preferred reagents for whole genome amplification (“WGA”).
# [9] = tested on: singly-primed M13mp18 single-stranded DNA circle; details: cited from earlier work
molecule,measurement,setting,value
"O=C(O)CP(=O)(O)O [PAA, phosphonoacetic acid]",inhibition at 20000 µM,[1],60%
"BALF5: 116-kDa catalytic subunit of EBV DNA polymerase with intrinsic 3′-5′ exonuclease activity, SEQ ID NO. 8",DNA polymerase elongation activity on activated CT DNA,"[2]; 100 mM ammonium sulfate, BALF5 alone",completely inactive
same,increase of activity on CT DNA over its activity alone in the absence of salt,"[2]; in the presence of BMRF1, 100 mM ammonium sulfate",greater than 100 fold
same,DNA polymerase elongation activity on activated CT DNA,[2]; low ionic strength,significant DNA polymerase elongation activity
same,Specific Activity,[3],1.7 micromoles of dCMP incorporation per milligram of protein per hour
same,binding to GST alone,[4],very weak
same,binding to the GST-BMRF1 fusion,[5]; 0 and 200 mM ammonium sulfate,bind poorly
same,binding to the GST-BMRF1 fusion,[5]; PBS and 50-150 mM ammonium sulfate,bound efficiently
same,binding to GST-BMRF1(1-303),[6],bound
EBV DNA polymerase holoenzyme: 1:1 complex of BALF5 catalytic subunit and BMRF1 processivity factor,ionic strength optimum of processive primer-dependent DNA synthesis,[7],150 mM ammonium sulfate
same,activity on oligo dG:poly dC compared to oligo dA:poly dT,[8],29 fold
same,strand-displacement activity (SDA),[9],possesses signification SDA
same,rate of incorporation,[9]; singly-primed M13mp18 single-stranded DNA circle,approximately 7200 nucleotides in 10 minutes
B1,Specific Activity,[3],0.2 micromoles of dCMP incorporation per milligram of protein per hour
